Among the test systems are SF-268 CNS; OVCAR-3 ovarian; UACC-257 melanoma; CAKI-1 renal; HCC-2998 colon; OVCAR-4 ovarian; MDA-MB-435; KM12 colon; UO-31 renal; HT29 colon.
Experiment in all cases: DTP human tumour cell line panel, 48 h

As usually defined, the TGI is the concentration giving total growth inhibition. For orientation: GI50 means the concentration at which growth is held to half of that of the control.

The structures appear in SMILES notation.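 Compound exposure: 48 hours, 5 concentrations, 96-well plates. The concentration for 50% growth inhibition is given as GI50. TGI: total growth inhibition.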

For the compound `CCCCCCNC(=O)C1=C(C)NC(C)=C(C(=O)NCCCCCC)C1`, the TGI in the assay with SF-268 CNS, in the assay on OVCAR-3 ovarian, with UACC-257 melanoma, in the assay with CAKI-1 renal, in the assay with HCC-2998 colon and in the assay on OVCAR-4 ovarian was greater than 100 µM throughout. Moreover, the TGI in the assay on MDA-MB-435, in the assay with KM12 colon, in the assay on UO-31 renal and with HT29 colon was greater than 100 µM in each case.
For `CCCCNc1nc(NC(C)(C)C)nc(NC(C)(C)C)n1`, the GI50 in the assay with SF-268 CNS is 48.4 µM; in the assay on OVCAR-3 ovarian it was 12.6 µM; in the assay on UACC-257 melanoma it was 81.3 µM; in the assay on CAKI-1 renal it was 5.55 µM; with HCC-2998 colon it was 8.05 µM; in the assay with OVCAR-4 ovarian, 3.03 µM. Further, the GI50 in the assay with MDA-MB-435 was 31.8 µM; in the assay on KM12 colon, 4.87 µM; in the assay on UO-31 renal, 7.41 µM; in the assay on HT29 colon, 2.37 µM. The TGI in the assay on SF-268 CNS, in the assay on OVCAR-3 ovarian, in the assay with UACC-257 melanoma, in the assay with CAKI-1 renal, in the assay on HCC-2998 colon and in the assay with OVCAR-4 ovarian was greater than 100 µM each time. Besides, the TGI in the assay with MDA-MB-435, in the assay on KM12 colon, in the assay on UO-31 renal and with HT29 colon was greater than 100 µM in each case.

Source of the values: PubChem BioAssay (NCI).
